Reference: US20260116921A1, “PEPTIDE INHIBITORS OF INTERLEUKIN-23 RECEPTOR AND THEIR USE TO TREAT INFLAMMATORY DISEASES” (priority 2018, published 2026)
Where two headings read alike, the source gives them in different places. Bridge positions count the residues as written; N and C are the ends. Square brackets hold non-standard residues; d marks the D form. Trp(4-OMe) = COc1cccc2[nH]cc(C[C@H](N)C(=O)O)c12; Trp(5-Cl) = N[C@@H](Cc1c[nH]c2ccc(Cl)cc12)C(=O)O; Trp(5-OH) = N[C@@H](Cc1c[nH]c2ccc(O)cc12)C(=O)O; AEF = NCCOc1ccc(C[C@H](N)C(=O)O)cc1; αMeL = CC(C)C[C@](C)(N)C(=O)O; Pen = CC(C)(S)[C@H](N)C(=O)O

Columns and labels:
IL-23R [1] = molecular target: T1, IL-23R (Homo sapiens, UniProt Q5VWK5); test: DB cells IL23R pSTAT3 cell assay (pStat3 HTRF); type: cell-based
T1 sequence (Q5VWK5 24-629): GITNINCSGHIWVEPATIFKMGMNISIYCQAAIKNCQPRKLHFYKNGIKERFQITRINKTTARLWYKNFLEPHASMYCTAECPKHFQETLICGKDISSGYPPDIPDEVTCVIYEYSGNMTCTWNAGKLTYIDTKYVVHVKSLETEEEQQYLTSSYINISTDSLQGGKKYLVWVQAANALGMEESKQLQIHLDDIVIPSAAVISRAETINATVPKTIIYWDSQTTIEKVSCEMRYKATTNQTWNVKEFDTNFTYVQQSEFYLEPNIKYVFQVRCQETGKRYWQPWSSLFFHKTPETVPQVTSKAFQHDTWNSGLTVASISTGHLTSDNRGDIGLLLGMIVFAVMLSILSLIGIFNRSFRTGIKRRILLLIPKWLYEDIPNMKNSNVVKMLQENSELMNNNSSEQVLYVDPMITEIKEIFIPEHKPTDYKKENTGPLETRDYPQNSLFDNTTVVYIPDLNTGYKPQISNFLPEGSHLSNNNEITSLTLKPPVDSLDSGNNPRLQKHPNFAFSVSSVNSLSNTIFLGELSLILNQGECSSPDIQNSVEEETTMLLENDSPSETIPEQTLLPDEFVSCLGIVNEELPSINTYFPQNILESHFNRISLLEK
Summary of the method: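 HTRF readout of lysate pSTAT3 (Tyr705) after two-plate processing. Peptide dilution series co-incubated with IL-23 (0.5 nM final) on 5×10E5 IL-23R-expressing DB cells per well, 30 min, 37 °C.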

NK cells = test: NK cell based assay (IL-23/IL-18-induced IFNγ, Quantikine ELISA); conditions: human primary NK cells, IL-23 at EC50 to EC75 + IL-18 10 ng/mL, IFNγ after 20 to 24 hours
Summary of the method: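 Human NK cells were negatively selected from healthy-donor peripheral blood and expanded for 7 days in FBS-supplemented RPMI 1640 with IL-2 (25 ng/mL). IFNγ in the supernatant was quantified by ELISA after 20 to 24 hours.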

[2] = Stability in simulated gastric fluid (SGF); type: in vitro ADME; conditions: pig (pepsin), simulated gastric fluid (SGF) with porcine pepsin, pH=2, 37° C., 20 μM peptide, read-out: SGF t½ (converted)
Procedure: SGF was prepared by adding 20 mg NaCl, 32 mg porcine pepsin (MP Biochemicals, catalog 02102599), and 70 μl HCl to 10 ml water (final pH=2). Aliquots of SGF (0.5 ml each) were pre-warmed at 37° C. To start the reaction, 1 μl of peptide stock solution (10 mM in DMSO) was added to 0.5 ml SGF and thoroughly mixed such that the final peptide concentration was 20 μM. The reactions were incubated at 37° C. with gentle shaking. At each time point (0, 15, 30, 60 min) 50 μl aliquots were removed and added to 200 ul acetonitrile containing 0.1% formic acid to quench the reaction. Samples are stored at 4° C. until the end of the experiment and centrifuged at 10,000 rpm for 5 minutes. Aliquots of the supernatant were removed, diluted 1:1 into distilled water containing internal standard, and analyzed by LCMS/MS. Percent remaining at each timepoint was calculated based on the peak area response ratio of test to compound to internal standard. Time 0 was set to 100%, and all later timepoints were calculated relative to time 0. Half-lives were calculated by fitting to a first-order exponential decay equation using GraphPad.

in vitro [3] = type: in vitro ADME; parameters: half-life: dose or concentration left out as unconfirmed; conditions: pH 6.8, 37° C., § matrix is 100 fold dilution of standard SIF concentration; for SIF t½: simulated intestinal fluid, pancreatin
in vitro [4] = conditions: human, 20% fecal homogenate (supernatant), anaerobic, pH 6.8
in vitro [5] = conditions: cynomolgus monkey, 20% fecal homogenate (supernatant), anaerobic, pH 6.8
in vitro [6] = conditions: both, SD, rat, plasma (EDTA)
[7] = 20% human fecal homogenate, 37° C., 20 μM
[8] = 20% cynomolgus monkey fecal homogenate, 37° C., 20 μM
IL-23R [9] = molecular target: T2, IL-23R (human, UniProt Q5VWK5 24-629); test: cell-based or functional assay
T2 sequence (looked up): T1 sequence (Q5VWK5 24-629)

IL-23R [10] = molecular target: T2, IL-23R; test: cell-based or functional assay; remark: listed apart in the source
[11] = Table E3, DB cells, IL-23 0.5 nM, 30 minutes at 37° C., read-out: pStat3 HTRF (IC50)

CC(=O)NCCCC[C@H](NC(=O)[C@](C)(CC(C)C)NC(=O)[C@H](Cc1ccc2ccccc2c1)NC(=O)[C@H](Cc1ccc(OCCN)cc1)NC(=O)[C@H]1NC(=O)[C@H](CCC(N)=O)NC(=O)[C@H](Cc2c[nH]c3c(C)cccc23)NC(=O)[C@H]([C@@H](C)O)NC(=O)[C@H](CC(N)=O)NC(=O)[C@@H](NC(C)=O)C(C)(C)SSC1(C)C)C(=O)N[C@@H](CC(N)=O)C(=O)N[C@@H](CC(N)=O)C(N)=O [compound 6]
IC50 (IL-23R [1]): < 1 nM
IC50 (NK cells): < 10 nM
half-life at 20 μM [2]: 12 h
SIF t½ (in vitro [3]): 24 h
half-life at 20 μM (in vitro [4]): 17 h
half-life at 20 μM (in vitro [5]): 4 h
half-life at 20 μM (in vitro [6]): < 1 h

CC(=O)N[C@H]1CCSC[C@@H](C(=O)N[C@@H](Cc2ccc(OCCN)cc2)C(=O)N[C@@H](Cc2ccc3ccccc3c2)C(=O)NC2(C(=O)N[C@@H](CCC(=O)O)C(=O)N[C@@H](CC(N)=O)C(=O)N[C@@H](CC(N)=O)C(N)=O)CCOCC2)NC(=O)[C@H](CCC(N)=O)NC(=O)[C@H](Cc2c[nH]c3c(C)cccc23)NC(=O)[C@H]([C@@H](C)O)NC(=O)[C@H](CCC(N)=O)NC1=O [compound 28]
IC50 (IL-23R [1]): < 1 nM
half-life at 20 μM [2]: 3 h
SIF t½ (in vitro [3]): 24 h
half-life at 20 μM (in vitro [4]): 1 h
half-life at 20 μM (in vitro [5]): 5 h

CC(=O)NCCCC[C@H](NC(=O)C1(NC(=O)[C@H](Cc2ccc3ccccc3c2)NC(=O)[C@H](Cc2ccc(OCCN)cc2)NC(=O)[C@@H]2CSCC[C@H](NC(=O)[C@@H](CCCNC(=N)N)NC(C)=O)C(=O)N[C@@H](CCC(N)=O)C(=O)N[C@@H]([C@@H](C)O)C(=O)N[C@@H](Cc3c[nH]c4c(C)cccc34)C(=O)N[C@@H](CCC(N)=O)C(=O)N2)CCOCC1)C(=O)N[C@@H](CC(N)=O)C(=O)N[C@@H](CC(N)=O)C(N)=O [compound 29]
IC50 (IL-23R [1]): < 1 nM
half-life at 20 μM [2]: 1 h
half-life (in vitro [3]; simulated intestinal fluid (SIF) with pancreatin, read-out: SIF t½ (converted)): 21 h
half-life at 20 μM (in vitro [6]): 3 h

CC(=O)NCCCC[C@H](NC(=O)[C@](C)(CC(C)C)NC(=O)[C@H](Cc1ccc2ccccc2c1)NC(=O)[C@H](Cc1ccc(OCCN)cc1)NC(=O)[C@H]1NC(=O)[C@H](CCC(N)=O)NC(=O)[C@H](Cc2c[nH]c3c(C)cccc23)NC(=O)[C@H]([C@@H](C)O)NC(=O)[C@H](CC(N)=O)NC(=O)[C@@H](NC(C)=O)C(C)(C)SSC1(C)C)C(=O)N[C@@H](CC(N)=O)C(=O)NCCC(N)=O [compound 201]
IC50 (IL-23R [1]; [11]): < 1 nM
IC50 (NK cells): < 10 nM
half-life at 20 μM [2]: 14 h
half-life at 20 μM (in vitro [4]): > 24 h
half-life at 20 μM (in vitro [5]): 19 h
half-life at 20 μM (in vitro [6]): < 0.3 h

CC(=O)NCCCC[C@H](NC(=O)[C@](C)(CC(C)C)NC(=O)[C@H](Cc1ccc2ccccc2c1)NC(=O)[C@H](Cc1ccc(OCCN)cc1)NC(=O)[C@H]1NC(=O)[C@H](CCC(N)=O)NC(=O)[C@H](Cc2c[nH]c3c(C)cccc23)NC(=O)[C@H]([C@@H](C)O)NC(=O)[C@H](CC(N)=O)NC(=O)[C@@H](NC(C)=O)C(C)(C)SSC1(C)C)C(=O)N1CCC[C@H]1C(=O)NCCC(N)=O [compound 211]
IC50 (IL-23R [1]; [11]): > 100 nM
t½: Human Feces anaerobic [7]: 10 h
t½: Monkey Feces anaerobic [8]: >24 h

CC(=O)NCCCC[C@H](NC(=O)[C@](C)(CC(C)C)NC(=O)[C@H](Cc1ccc2ccccc2c1)NC(=O)[C@H](Cc1ccc(OCCN)cc1)NC(=O)[C@H]1NC(=O)[C@H](CCC(N)=O)NC(=O)[C@H](Cc2c[nH]c3c(C)cccc23)NC(=O)[C@H]([C@@H](C)O)NC(=O)[C@H](CC(N)=O)NC(=O)[C@@H](NC(C)=O)C(C)(C)SSC1(C)C)C(=O)N[C@@H](CO)C(=O)NCCC(N)=O [compound 221]
IC50 (IL-23R [1]; [11]): 1 to 10 nM
IC50 (NK cells): < 10 nM
half-life at 20 μM [2]: 9 h
half-life at 20 μM (in vitro [4]): > 24 h
half-life at 20 μM (in vitro [5]): > 24 h
half-life at 20 μM (in vitro [6]): 2 h

CC(=O)NCCCC[C@H](NC(=O)[C@](C)(CCCCN)NC(=O)[C@H](Cc1ccc2ccccc2c1)NC(=O)[C@H](Cc1ccc(OCCN)cc1)NC(=O)[C@H]1NC(=O)[C@H](CCC(N)=O)NC(=O)[C@H](Cc2c[nH]c3c(C)cccc23)NC(=O)[C@H]([C@@H](C)O)NC(=O)[C@H](CC(N)=O)NC(=O)[C@@H](NC(C)=O)C(C)(C)SSC1(C)C)C(=O)N[C@@H](CC(N)=O)C(=O)NCCC(N)=O [compound 267]
IC50 (IL-23R [1]; [11]): < 1 nM
t½: Monkey Feces anaerobic [8]: 4 h

CC(=O)NCCCC[C@H](NC(=O)C1(NC(=O)[C@H](Cc2ccc3ccccc3c2)NC(=O)[C@H](Cc2ccc(OCCN)cc2)NC(=O)[C@H]2NC(=O)[C@H](CCC(N)=O)NC(=O)[C@H](Cc3c[nH]c4c(C)cccc34)NC(=O)[C@H]([C@@H](C)O)NC(=O)[C@H](CC(N)=O)NC(=O)[C@@H](NC(C)=O)C(C)(C)SSC2(C)C)CCNCC1)C(=O)N[C@@H](CC(N)=O)C(=O)NCCC(N)=O [compound 275]
t½: Monkey Feces anaerobic [8]: 8 h

B1: SEQ ID NO: 21 (peptide)
peptide: Ac-[Pen]NTWQ[Pen][AEF][Trp(5-OH)][αMeL]K(Ac)NN-NH2
modifications: disulfide 1-6
SMILES: CC(=O)NCCCC[C@H](NC(=O)[C@](C)(CC(C)C)NC(=O)[C@H](Cc1c[nH]c2ccc(O)cc12)NC(=O)[C@H](Cc1ccc(OCCN)cc1)NC(=O)[C@H]1NC(=O)[C@H](CCC(N)=O)NC(=O)[C@H](Cc2c[nH]c3ccccc23)NC(=O)[C@H]([C@@H](C)O)NC(=O)[C@H](CC(N)=O)NC(=O)[C@@H](NC(C)=O)C(C)(C)SSC1(C)C)C(=O)N[C@@H](CC(N)=O)C(=O)N[C@@H](CC(N)=O)C(N)=O
pStat3 HTRF (nM) IC50 (IL-23R [9]): > 100 nM

B2: SEQ ID NO: 9 (peptide)
peptide: XNTXQXXXXKNN
modifications: Ac-[Pen]-NT-[W(5-OMe)]-Gln-[Pen]-[Phe[4-(2-aminoethoxy)]-[2-Nal]-[α-MeLeu]-[Lys(Ac)]-NN-NH2; Pen-Pen disulfide
pStat3 HTRF (nM) IC50 (IL-23R [9]): > 100 nM

B3: SEQ ID NO: 6 (peptide)
peptide: XNTXQXXXXKNN
modifications: Ac-[Pen]-NT-[W(7-Me)]-Gln-[Pen]-[Phe[4-(2-aminoethoxy)]-[2-Nal]-[α-MeLeu]-[Lys(Ac)]-NN-NH2; Pen-Pen disulfide
pStat3 HTRF (nM) IC50 (IL-23R [9]): < 1 nM
NK Cell Assay (nM) IC50 (IL-23R [10]): < 10 nM

B4: SEQ ID NO: 10 (peptide)
peptide: XNTXQXXXXKNN
modifications: Ac-[Pen]-NT-[W(5-OH)]-Gln-[Pen]-[Phe[4-(2-aminoethoxy)]-[2-Nal]-[α-MeLeu]-[Lys(Ac)]-NN-NH2; Pen-Pen disulfide
pStat3 HTRF (nM) IC50 (IL-23R [9]): > 100 nM

B5: SEQ ID NO: 11 (peptide)
peptide: XNTXQXXXXKNN
modifications: Ac-[Pen]-NT-[W(5-Br)]-Gln-[Pen]-[Phe[4-(2-aminoethoxy)]-[2-Nal]-[α-MeLeu]-[Lys(Ac)]-NN-NH2; Pen-Pen disulfide
pStat3 HTRF (nM) IC50 (IL-23R [9]): > 100 nM

B6: SEQ ID NO: 15 (peptide)
peptide: Ac-[Pen]NTWQ[Pen][AEF][Trp(4-OMe)][αMeL]K(Ac)NN-NH2
modifications: disulfide 1-6
SMILES: COc1cccc2[nH]cc(C[C@H](NC(=O)[C@H](Cc3ccc(OCCN)cc3)NC(=O)[C@H]3NC(=O)[C@H](CCC(N)=O)NC(=O)[C@H](Cc4c[nH]c5ccccc45)NC(=O)[C@H]([C@@H](C)O)NC(=O)[C@H](CC(N)=O)NC(=O)[C@@H](NC(C)=O)C(C)(C)SSC3(C)C)C(=O)N[C@@](C)(CC(C)C)C(=O)N[C@@H](CCCCNC(C)=O)C(=O)N[C@@H](CC(N)=O)C(=O)N[C@@H](CC(N)=O)C(N)=O)c12
pStat3 HTRF (nM) IC50 (IL-23R [9]): > 100 nM

B7: SEQ ID NO: 12 (peptide)
peptide: Ac-[Pen]NTWQ[Pen][AEF][Trp(5-Cl)][αMeL]K(Ac)NN-NH2
modifications: disulfide 1-6
SMILES: CC(=O)NCCCC[C@H](NC(=O)[C@](C)(CC(C)C)NC(=O)[C@H](Cc1c[nH]c2ccc(Cl)cc12)NC(=O)[C@H](Cc1ccc(OCCN)cc1)NC(=O)[C@H]1NC(=O)[C@H](CCC(N)=O)NC(=O)[C@H](Cc2c[nH]c3ccccc23)NC(=O)[C@H]([C@@H](C)O)NC(=O)[C@H](CC(N)=O)NC(=O)[C@@H](NC(C)=O)C(C)(C)SSC1(C)C)C(=O)N[C@@H](CC(N)=O)C(=O)N[C@@H](CC(N)=O)C(N)=O
pStat3 HTRF (nM) IC50 (IL-23R [9]): > 100 nM
